Like-named read-outs stand apart in the source and are kept apart here.
How the values were obtained:
[1] = patients; Taylor et al., Acta Psychiatr Scand. 2001; cited from earlier work
[2] = Olanzapine-related changes (body weight, adipose tissue, serum chemistry) in female cynomolgus monkeys; format: in vivo
Description: Clinical observations and weight gain were assessed over a 28-day treatment period. […] Beginning two weeks prior to the study, monkeys were given ad libitum access to a highly palatable, high caloric diet. On the day prior to the start of treatment, monkeys were weighed and assigned to groups using a randomized block design based on body weight (BW); average BW across the 3 groups was 3.1+0.08 kg on the day of randomization. Also, baseline whole body CT scans were taken on the day prior to initiation of treatments. […] A second CT scan was conducted on day 29.

[3] = Olanzapine-related weight gain in female rats; format: in vivo
Text: The rats were assigned to treatment groups using a random block design based on initial body weight.

[4] = tested on: ghrelin; assay: Circulating ghrelin levels in conscious, unrestrained rats; format: in vivo; conditions: 10 mg/kg PO, two hours post administration
Description: To determine whether Compound1 and naltrexone have any effect on circulating levels of ghrelin, conscious, unrestrained rats (low stress model) were administered Compound 1 and nalrextone (10 mg/kg, PO). Blood samples were collected and analyzed by bioanalytical for circulating levels of ghrelin at 0, 15, 30, 60, and 120 minutes most administration.

[5] = tested on: ghrelin; conditions: known in literature; cited from earlier work
[6] = co-administration of Compound 1 0.4 mg/kg IM with olanzapine, serum, Day 28
[7] = olanzapine with Compound 1 0.4 mg/kg IM once daily, 28 days
[8] = olanzapine only, compared to the vehicle group

**Q.** For `O=C1Cc2cc(CCN3CCN(c4nsc5ccccc45)CC3)c(Cl)cc2N1` [ziprasidone, 5-[2-[4-(1,2-benzisothiazol-3-yl)-1-piperazinyl]ethyl]-6-chloro-1,3-dihydro-2H-indol-2-one], which “weight gain associated with atypical antipsychotic” value (from here on “weight gain associated”) [1] is on record?
**A.** less

**Q.** Which “effect on olanzapine-induced elevation in LDL concentrations” value [2, 6] does the source give for `NC(=O)c1ccc2c(c1O)[C@]13CCN(CC4CC4)[C@H](C2)[C@]1(O)CCC(=O)C3` [Compound 1] here?
**A.** prevented

**Q.** And the “effect on olanzapine-induced elevation in TGs” value [2, 6]?
**A.** prevented

**Q.** What about the “effect on OLZ-induced changes (weight, adipose tissue accretion, TGs and LDLs)” value ([2]; co-administration of Compound 1 with olanzapine, 28 days) of the same compound?
**A.** mitigated

**Q.** And the “average body weight gain” value [2, 7]?
**A.** 0.08 kg

**Q.** And the “average body weight gain, % of Day 0 BW” value [2, 7]?
**A.** 2.6%

**Q.** Which “effect on olanzapine-induced weight gain” value ([3]; 2 mg/kg SC concurrent with afternoon olanzapine (1 mg/kg PO twice daily), 10 days) does the source give for `O=C1CC[C@@]2(O)[C@H]3Cc4ccc(O)c5c4[C@@]2(CCN3CC2CC2)[C@H]1O5` [naltrexone] here?
**A.** did not affect olanzapine-induced weight gain

**Q.** And the circulating ghrelin levels [4]?
**A.** significantly greater circulating ghrelin levels than Compound 1

**Q.** For `O=C1CCc2ccc(OCCCCN3CCN(c4cccc(Cl)c4Cl)CC3)cc2N1` [aripiprazole, 7-[4-[4-(2,3-dichlorophenyl)piperazin-1-yl]butoxy]-3,4-dihydro-1H-quinolin-2-one], which “weight gain associated” value [1] is on record?
**A.** less

**Q.** Which “weight gain associated” value [1] does the source give for `OCCOCCN1CCN(C2=Nc3ccccc3Sc3ccccc32)CC1` [quetiapine, 2-(2-(4-dibenzo[b,f][1,4]thiazepine-11-yl-1-piperazinyl)ethoxy)ethanol] here?
**A.** greatest

**Q.** For `Cc1cc2c(s1)Nc1ccccc1N=C2N1CCN(C)CC1` [olanzapine, 2-methyl-4-(4-methyl-1-piperazinyl)-10H-thieno[2,3-b][1,5]benzodiazepine], which “weight gain (body weight)” value ([3]; olanzapine alone 1 mg/kg PO twice daily, 10 consecutive days, vs vehicle control) is on record?
**A.** greater increases in weight gain

**Q.** And the circulating ghrelin levels [5]?
**A.** increases circulating ghrelin levels

**Q.** And the “adipose tissue gain (CT scan)” value [2, 8]?
**A.** gained relatively more adipose tissue compared to the vehicle group

**Q.** What about the “location of adipose tissue deposition (CT scan)” value [2, 8] of the same compound?
**A.** more abdominal fat accretion

From patent publication US20240293394A1, “METHODS FOR TREATING ANTIPSYCHOTIC-INDUCED WEIGHT GAIN” (priority 2010, published 2024)
